Laboratory results published in ChEMBL document CHEMBL1201862, “PubChem BioAssay data set” (2004).
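How tested: cells in 96-well plates exposed to compound for 48 hours at five concentrations. Abbreviation: GI50, concentration required for 50% inhibition of growth.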 Calls of active or inactive are those of the source. Rule as the data show it: active = GI50 up to about 1.1 µM and inactive = higher.

Tests used:
Test in all cases: NCI-60 cell line screen, 48 h
[1] = test system: A498
[2] = test system: COLO 205
[3] = test system: EKVX
[4] = test system: HCT-15
[5] = test system: HL-60
[6] = test system: Hs-578T
[7] = test system: K562
[8] = test system: KM12
[9] = test system: MDA-N
[10] = test system: Malme-3M
[11] = test system: NCI-H226
[12] = test system: NCI-H23
[13] = test system: NCI-H460
[14] = test system: OVCAR-3
[15] = test system: PC-3
[16] = test system: RPMI-8226
[17] = test system: SF-268
[18] = test system: SF-539
[19] = test system: SK-MEL-2
[20] = test system: UACC-257

SMILES	GI50 [1]	GI50 [2]	GI50 [3]	GI50 [4]	GI50 [5]	GI50 [6]	GI50 [7]	GI50 [8]	GI50 [9]	GI50 [10]	GI50 [11]	GI50 [12]	GI50 [13]	GI50 [14]	GI50 [15]	GI50 [16]	GI50 [17]	GI50 [18]	GI50 [19]	GI50 [20]
Cn1c(=O)oc2cc(C(=O)CSC(=S)N3CCCCCC3)ccc21	6.93 µM (inactive)	> 100 µM (inactive)	> 100 µM (inactive)	81.1 µM	51.8 µM (inactive)	19 µM (inactive)	57.1 µM (inactive)	49.8 µM (inactive)	> 100 µM (inactive)	> 100 µM (inactive)	> 100 µM (inactive)	> 100 µM (inactive)	52.7 µM (inactive)	> 100 µM (inactive)	99.1 µM (inactive)	> 100 µM (inactive)	> 100 µM (inactive)	> 100 µM (inactive)	> 100 µM (inactive)	> 100 µM (inactive)
COc1ccc(C[C@H]2NC[C@H](O)[C@H]2OC(C)=O)cc1 [ANISOMYCIN]	0.0324 µM (active)	< 0.0121 µM (active)	0.0361 µM (active)	0.0326 µM	0.0104 µM (active)	0.01 µM (active)	< 0.0124 µM (active)	0.0224 µM (active)	0.0313 µM (active)	0.0552 µM (active)	0.0234 µM (active)	0.0316 µM (active)	0.0169 µM (active)	0.0263 µM (active)	< 0.0191 µM (active)	0.0243 µM (active)	0.0361 µM (active)	0.0213 µM (active)	0.0287 µM (active)	0.0359 µM (active)
CC(=O)[C@]1(C)[C@H](C)O[C@](C)(CO)[C@H]1O[Si](C)(C)c1ccccc1	> 100 µM (inactive)	56.6 µM (inactive)	46.3 µM (inactive)	23 µM	18.4 µM (inactive)	45 µM (inactive)	32.8 µM (inactive)	47.6 µM (inactive)	54 µM (inactive)	15.4 µM (inactive)	67.9 µM (inactive)	20.5 µM (inactive)	51.2 µM (inactive)	55 µM (inactive)	45.5 µM (inactive)	35.2 µM (inactive)	54.5 µM (inactive)	> 100 µM (inactive)	> 100 µM (inactive)	23 µM (inactive)
COc1c(Br)cc2c(c1OC)C(Br)CCC(Br)(Br)C2=O (stereo not given)	3.32 µM (inactive)	1.82 µM (inactive)	3.93 µM (inactive)	0.314 µM	0.787 µM (active)	10.4 µM (inactive)	0.377 µM (active)	3.72 µM (inactive)	0.242 µM (active)	1.89 µM (inactive)	2.21 µM (inactive)	0.386 µM (active)	2.75 µM (inactive)	1.14 µM (inactive)	1.44 µM (inactive)	1.34 µM (inactive)	0.986 µM (active)	1.85 µM (inactive)	1.1 µM (active)	3.17 µM (inactive)
c1cc(CSc2ncnc3[nH]cnc23)ccn1	> 100 µM (inactive)	> 100 µM (inactive)	> 100 µM (inactive)	> 100 µM	67.9 µM (inactive)	> 100 µM (inactive)	27.8 µM (inactive)	> 100 µM (inactive)	42.9 µM (inactive)	> 100 µM (inactive)	> 100 µM (inactive)	> 100 µM (inactive)	> 100 µM (inactive)	63 µM (inactive)	> 100 µM (inactive)	58.1 µM (inactive)	92.9 µM (inactive)	24.5 µM (inactive)	80.5 µM (inactive)	> 100 µM (inactive)
